Results as given in PMC7954794, “Protein context shapes the specificity of SH3 domain-mediated interactions in vivo” (Nature Communications, 2021).

How the values were obtained:
[1] = tested on: NCK2; assay: NCK2 phase separation with 1,6-hexanediol (Fig. S7C); assay type: biochemical, mouse; conditions: 0%, 5%, and 10% 1,6-hexanediol, 60 mM NaCl, n = 3
Method: (§1) Purified NCK2 proteins were diluted in GST buffer to identical concentrations. At 500 mM NaCl present in this buffer, all NCK2 constructs were completely soluble. Phase transition was initiated by dilution in imidazole buffer (10 mM imidazole (Bio Basic) pH 7.0, 1 mM DTT, 1 mM EGTA (Millipore Sigma), 1 mM MgCl2, 2.5% Glycerol (Bioshop Canada), 3% Dextran (Millipore Sigma)) containing various amount of NaCl so that the final concentration of NaCl would correspond to those in Supplementary Fig. 7B. For all the other experiments, the phase transition of NCK2 proteins was assessed at 60 mM NaCl. […] The pellets to supernatant fractions were used to quantify phase transition at 60 mM NaCl (7 replicates) via Coomassie protein quantification. The involvement of weak hydrophobic interactions in NCK2 driven phase transition was assessed using 1,6-Hexanediol (Millipore Sigma) at 60 mM NaCl. Imidazole buffer containing 0%, 1%, 5%, and 10% 1,6-Hexanediol was first prepared and phase transition was initiated and analyzed as described above. Finally, the competition of SH3-2 dependent homotypic NCK2 interaction with an SH3-2 binding peptide was assessed in the presence of 5, 15, 45, 90, 150, or 300 μM PAK1 peptide ([…]) in imidazole buffer with 60 mM NaCl. […]

[2] = tested on: NCK2 interactome in HEK293T cells; assay: AP-SWATH (DIA) quantitative MS of NCK2 PPIs (Fig. 5A-C); assay type: cell-based, human; conditions: SAINT FDR < 1%; duplicates
Method: Human embryonic kidney 293T cells (HEK293T, ATCC:CRL-3216) were grown in Dulbecco’s Modified Eagle’s medium (DMEM) high glucose complemented with 10% fetal calf serum under 5% CO2 at 37 °C. Transient expression of cDNA in cells was performed by polyethylenimine (PEI, Millipore Sigma) transfections. Enrichment of phospho-dependent PPIs was done by treating HEK293T cells with the tyrosine phosphatase inhibitor pervanadate, freshly made by mixing 4 mM orthovanadate (Millipore Sigma) with 30% H2O2 (Millipore Sigma) in water in a 200:1 volume ratio. […]
NCK2 baits purified on beads from HEK293T cells (as previously described in the methods) were washed two additional times in 20 mM Tris-HCl pH 7.4 and eluted in 50 mM phosphoric acid. […] These were analyzed alongside four negative controls corresponding to transiently expressed 3×FLAG-GFP purified from HEK293T cells (as described for NCK2 constructs). […] The equivalent of one-third of each sample was used for the SWATH-libraries generation and another third for SWATH quantification. […] We validated that the same quantity of baits was used for each NCK2 chimeras by quantifying NCK2 peptides in each sample (see Supplementary Data 3). […]

[3] = tested on: NCK2; assay: NCK2 phase separation with PAK1 peptide competition (Fig. S7A); assay type: biochemical, mouse; conditions: 5, 15, 45, 90, 150, or 300 μM peptide, 60 mM NaCl; phase contrast microscopy
Method: as §1

Compound: OCCCCCCO [1,6-hexanediol]
- Effect on NCK2 phase separation [1]: disrupts all NCK2 SH3-shuffled proteins in a similar manner

Compound: WT NCK2: wild-type NCK2 adaptor (mouse cDNA) with three SH3s and one SH2
- High confidence NCK2 PPIs [2]: 56 PPIs

Compound: DIQDKPPAPPMRNTST [PAK1 peptide]
- Effect on NCK2 phase separation [3]: Phase separation is inhibited
